Test results published in the OligoGym collection.
After the bases stand the sugars from the 5' end (letter, count) and the backbone: PS all phosphorothioate, else s phosphorothioate and o phosphodiester by linkage. Methylation of C is not given here. e = 2'-O-(2-methoxyethyl) (MOE); k = constrained ethyl (cEt); d = 2'-deoxy (DNA); m = 2'-O-methyl

Target: HSD17B13
Details: ASO, HepaRG

| Sequence | target mRNA inhibition (1 µM) | also measured |
| --- | --- | --- |
| CTTTCATAGGGAGACC (sugars k3 d10 k3, PS) | 73% | target mRNA inhibition (0.02 µM): 20%; target mRNA inhibition (0.078 µM): 2%; target mRNA inhibition (0.313 µM): 54%; target mRNA inhibition (1.25 µM): 75%; target mRNA inhibition (5 µM): 86% |
| TACGACTTCATCTGTC (sugars k3 d10 k3, PS) | 29% |  |
| GCAGTTATTAGAAGTC (sugars k3 d10 k3, PS) | 76% | target mRNA inhibition (0.02 µM): 9%; target mRNA inhibition (0.078 µM): 22%; target mRNA inhibition (0.313 µM): 41%; target mRNA inhibition (1.25 µM): 74%; target mRNA inhibition (5 µM): 84% |
| ATCAGTTTTCCTCATG (sugars k3 d10 k3, PS) | 48% |  |
| GCAAGCCAACAGAGAG (sugars k3 d10 k3, PS) | 52% |  |
| GCTCTAATGTTTCTTG (sugars k3 d10 k3, PS) | 62% |  |
| GAGAGCGATAGATCTC (sugars k3 d10 k3, PS) | 1% |  |
| TTTAGGATTAATTCCC (sugars k3 d10 k3, PS) | 16% |  |
| TGCTAGTGCCAAACCA (sugars kkdddddddddkekek, PS) | 58% |  |
| TATTCTCTTGACAATG (sugars k3 d10 k3, PS) | 47% |  |
| GTAACGGTGATCAAAT (sugars k3 d1 m1 d8 k3, PS) | 21% |  |
| CAATTCACATATGTGA (sugars k3 d10 k3, PS) | 11% |  |
| TTGATCTCTTAGCTGT (sugars kkdddddddddkekek, PS) | 38% |  |
| TACATTCTTCAGGTGT (sugars k3 d10 k3, PS) | 61% |  |
| CTCTCTAAAGGGCTGC (sugars k3 d10 k3, PS) | 55% |  |
| GTTTAGATTGCATAAG (sugars k3 d10 k3, PS) | 46% |  |
| GGAGTACTTCACAATT (sugars k3 d10 k3, PS) | 79% | target mRNA inhibition (0.02 µM): 20%; target mRNA inhibition (0.078 µM): 25%; target mRNA inhibition (0.313 µM): 42%; target mRNA inhibition (1.25 µM): 75%; target mRNA inhibition (5 µM): 87% |
| ATACGACTTCCTTCTA (sugars k3 d10 k3, PS) | 44% |  |
| TTCTACAGAAGACTAC (sugars k3 d10 k3, PS) | 40% |  |
| CTAAAATTGTCTAAAC (sugars k3 d1 m1 d8 k3, PS) | 13% |  |
| AGGATTAATTCCCTTC (sugars k3 d10 k3, PS) | 19% |  |
| TCCTATATACATCCAA (sugars k3 d10 k3, PS) | 45% |  |
| GTGTAAGCTGAGAGTT (sugars k3 d10 k3, PS) | 60% |  |
| CAAAACCTTTGTTGCC (sugars k3 d10 k3, PS) | 14% |  |

| Sequence | target mRNA inhibition (1 µM) | also measured |
| --- | --- | --- |
| CCTCGATCCTATATAC (sugars k3 d1 m1 d8 k3, PS) | 9% |  |
| TAACCATAGGACATGG (sugars k3 d10 k3, PS) | 70% |  |
| CCTTCTGGTTCAGTCC (sugars k3 d10 k3, PS) | 72% | target mRNA inhibition (0.02 µM): 9%; target mRNA inhibition (0.078 µM): 20%; target mRNA inhibition (0.313 µM): 39%; target mRNA inhibition (1.25 µM): 68%; target mRNA inhibition (5 µM): 89% |
| GGTCACCTTTCATAAT (sugars kkdddddddddkekek, PS) | 52% |  |
| GTGTAAGCTGAGAGTT (sugars k3 d9 k3 e1, PS) | 45% |  |
| GTTAAGCAGATGGCTT (sugars k3 d10 k3, PS) | 41% |  |
| TACAGATTGGAATGCT (sugars kkdddddddddkekek, PS) | 35% |  |
| GAAGAAGGACTTTCAT (sugars k3 d10 k3, PS) | 40% |  |
| TCCAATATATACTGAC (sugars k3 d10 k3, PS) | 72% |  |
| TTAAGATACCCAGGTT (sugars k3 d9 k3 e1, PS) | 51% |  |
| TCCTAGGATGTTGACC (sugars k3 d10 k3, PS) | 0% |  |
| ACAGTAAAATTATGCC (sugars kkdddddddddkekek, PS) | 28% |  |
| TGTCCAGGTTGAGATA (sugars kkdddddddddkekek, PS) | 48% |  |
| TTGCAGAAATTCACCT (sugars k3 d10 k3, PS) | 36% |  |
| CCAGGTTGAGATAAAG (sugars k3 d10 k3, PS) | 49% |  |
| GAATTCACTATCTCCC (sugars k3 d10 k3, PS) | 38% |  |
| GATAAGTAGATGGTAA (sugars k3 d10 k3, PS) | 59% |  |
| TTGTATGAGGTCTCTC (sugars k3 d10 k3, PS) | 50% |  |
| TATATACCTGTTGCCT (sugars k3 d10 k3, PS) | 55% |  |
| CATCTTAAGATACCCA (sugars kkdddddddddkekek, PS) | 59% |  |
| CTGGTTTCATAACCTA (sugars k3 d10 k3, PS) | 9% |  |
| AGCTTTGCAGCATTGA (sugars k3 d10 k3, PS) | 62% |  |
| TTGCACCGTTTTGGGC (sugars k3 d9 k3 e1, PS) | 50% |  |
| TTGCAAGTTTATCAGT (sugars k3 d10 k3, PS) | 66% |  |

| Sequence | target mRNA inhibition (1 µM) | also measured |
| --- | --- | --- |
| GGCCTGAAGTTCTGAT (sugars k3 d10 k3, PS) | 0% |  |
| GAAGTGTAATGCTCCC (sugars k3 d10 k3, PS) | 71% |  |
| TACATTACAGCCTTAG (sugars k3 d10 k3, PS) | 75% | target mRNA inhibition (0.02 µM): 0%; target mRNA inhibition (0.078 µM): 2%; target mRNA inhibition (0.313 µM): 15%; target mRNA inhibition (1.25 µM): 71%; target mRNA inhibition (5 µM): 85% |
| ATTGAATTCACTATCT (sugars k3 d10 k3, PS) | 31% |  |
| GAACACTTTCACTGGG (sugars k3 d10 k3, PS) | 0% |  |
| TGAAATTGATACACCA (sugars k3 d10 k3, PS) | 58% |  |
| TATTATGTGATTGAGT (sugars kkdddddddddkekek, PS) | 65% |  |
| AGTTAGTATAGTTATC (sugars kkdddddddddkekek, PS) | 47% |  |
| TTCATAGGGAGACCAT (sugars k3 d10 k3, PS) | 65% |  |
| ATCACAAGTAAGGTAA (sugars k3 d10 k3, PS) | 62% |  |
| CCTAGTTGCAATGAGA (sugars k3 d10 k3, PS) | 77% |  |
| CACCTTTCATAATGTA (sugars k3 d10 k3, PS) | 59% |  |
| GCGGCAAATTTGCTGG (sugars k3 d10 k3, PS) | 0% |  |
| CTTATTAAGTACTGTG (sugars k3 d10 k3, PS) | 0% |  |
| TATACCTGTTGCCTAG (sugars k3 d10 k3, PS) | 11% |  |
| GATCATTCCTGCTAGT (sugars k3 d10 k3, PS) | 35% |  |
| TGATATTCTGTGGCAT (sugars k3 d9 k3 e1, PS) | 74% | target mRNA inhibition (0.02 µM): 8%; target mRNA inhibition (0.078 µM): 23%; target mRNA inhibition (0.313 µM): 40%; target mRNA inhibition (1.25 µM): 67%; target mRNA inhibition (5 µM): 90% |
| ACATACCACTCTTCTC (sugars k3 d10 k3, PS) | 35% |  |
| AGCTUTTGTCCACCTT (sugars k3 d1 m1 d8 k3, PS) | 72% |  |
| TAAGAGAAGGTGCACA (sugars k3 d10 k3, PS) | 12% |  |
| AGCTTATCGAGTTTAG (sugars k3 d10 k3, PS) | 54% |  |
| GCTGCTAGTGCCAAAC (sugars k3 d9 k3 e1, PS) | 62% |  |
| TAAACATCTCTGGGAC (sugars kkdddddddddkekek, PS) | 39% |  |
| ACTCCAAGTAGGAGTA (sugars k3 d10 k3, PS) | 0% |  |

| Sequence | target mRNA inhibition (1 µM) | also measured |
| --- | --- | --- |
| CCTAGTTTTCGGCACT (sugars k3 d10 k3, PS) | 62% |  |
| TTGTTAAGCAGATGGC (sugars k3 d10 k3, PS) | 84% | target mRNA inhibition (0.02 µM): 1%; target mRNA inhibition (0.078 µM): 1%; target mRNA inhibition (0.313 µM): 30%; target mRNA inhibition (1.25 µM): 79%; target mRNA inhibition (5 µM): 85% |
| TATGTAATAGCCAGTA (sugars k3 d10 k3, PS) | 50% |  |
| ACCAAGAGGGTTTTTA (sugars k3 d10 k3, PS) | 7% |  |
| TCATCCTTGGTGCTGA (sugars k3 d10 k3, PS) | 12% |  |
| CCGCGCTTATTAATAT (sugars k3 d10 k3, PS) | 21% |  |
| TCAAAGTTTTGGGACC (sugars k3 d10 k3, PS) | 42% |  |
| GCAGTTATTAGAAGTC (sugars k3 d9 k3 e1, PS) | 67% |  |
| CTAATGAATCATGATT (sugars k3 d10 k3, PS) | 20% |  |
| CCAAACTTGCCCATAA (sugars k3 d10 k3, PS) | 45% |  |
| ACATUGCAGTTATTAG (sugars k3 d1 m1 d8 k3, PS) | 26% |  |
| TTGCAATAGTACTATA (sugars k3 d10 k3, PS) | 3% |  |
| CAAAACAAGATTAGTC (sugars k3 d10 k3, PS) | 18% |  |
| TAAACTGTATGCCTCT (sugars k3 d10 k3, PS) | 49% |  |
| ATAGTTCAAATTGGAT (sugars k3 d10 k3, PS) | 48% |  |
| TAGTGGACTTCATTAG (sugars k3 d9 k3 e1, PS) | 22% |  |
| AAATGTCTTGGTAATC (sugars k3 d10 k3, PS) | 30% |  |
| CTAGTTGCAATGAGAT (sugars k3 d10 k3, PS) | 65% |  |
| GTCTAAATTATTGCCT (sugars k3 d10 k3, PS) | 45% |  |
| ACAGACTGTTGAGCTC (sugars k3 d10 k3, PS) | 53% |  |
| GACCTCTGTGAAAGCC (sugars k3 d10 k3, PS) | 46% |  |
| TATACTGAAGGCTGTG (sugars k3 d10 k3, PS) | 44% |  |
| GTTTTTAAGAGGCATG (sugars k3 d9 k3 e1, PS) | 78% | target mRNA inhibition (0.02 µM): 12%; target mRNA inhibition (0.078 µM): 17%; target mRNA inhibition (0.313 µM): 41%; target mRNA inhibition (1.25 µM): 64%; target mRNA inhibition (5 µM): 82% |
| TAAGAGATGAGTAGGC (sugars k3 d10 k3, PS) | 46% |  |
